Like-named read-outs stand apart in the source and are kept apart here.
Key:
[1] = tested on: Caco-2 cells; set-up: method as in PMID 26352530; settings: cited from earlier work
[2] = set-up: method as in PMID 26352530; settings: cited from earlier work
[3] = mouse, in vivo; for AUC(0-inf) / AUC(0-t) / half-life: ip, 10 mg/kg
Description: (§1) The remaining five compounds were evaluated for plasma and brain levels in a pharmacokinetic experiment in mice.
Pharmacokinetic analysis.
(Cyprotex UK) using LCMSMS.

[4] = target: hERG (Homo sapiens, UniProt Q12809); assay: hERG inhibition; type: biochemical; settings: for inhibition at 25 µM: hERG (% inhibition at 25 μM)
[5] = mouse, in vivo; for Cl_obs: ip
Description: as §1
Pharmacokinetic analysis.
(Cyprotex UK) using LCMSMS.

[6] = Brain tissue binding (fraction unbound); type: in vitro ADME; settings: read-out: Brain tissue (fu)
Description: Table 1. Key data for lead optimization. SD, standard deviation of the mean; SE, standard error of the mean; fu, fraction unbound; ND, not determined. | column: Brain tissue (fu)

[7] = Hepatocyte clearance (human); type: in vitro ADME; settings: human hepatocytes
[8] = target: Cyclophilin A (CypA) (Homo sapiens, UniProt P62937); assay: Fluorescence polarization cyclophilin A binding assay; settings: Table S7; focused SAR set; read-out: CypA Ki
Description: (§2) This was determined using a fluorescence polarization assay ([12]).
Fluorescence Polarization assay.
(§3) Briefly, titration of a single probe concentration
measure binding affinities.
FP -probe. Enzyme, inhibitor and
(ph7.4)) supplemented with 1 mM PMSF.

[9] = target: CypD (Homo sapiens, UniProt P30405); assay: Fluorescence polarization cyclophilin D binding assay; settings: Table S7; focused SAR set; read-out: CypD Ki
Description: as §2
Fluorescence Polarization assay.
as §3
measure binding affinities.

[10] = Hepatocyte clearance (mouse); type: in vitro ADME; settings: mouse hepatocytes
[11] = in vivo; settings: ABH, mouse, ip, 10 mg/kg; for level at 24 h: Brain concentrations at 24 hours
Description: as §1
Pharmacokinetic analysis.
(Cyprotex UK) using LCMSMS.

[12] = Plasma protein binding (fraction unbound); type: in vitro ADME; settings: read-out: Plasma protein (fu)
[13] = target: T1, TRIM-CypA (Homo sapiens, UniProt P62937+Q6PIZ9); type: cell-based; settings: CRFK-TRIMCypA cells; 0.5-20 μM; 48 hours; GFP-positive cells by flow cytometry
T1 construct: expressed in transfected cells; host or cells: CRFK (Crandell-Rees Feline Kidney) cells transduced with MLV EXN-TRIM-CypA vector, G418 selected

[14] = Pharmacokinetic study, plasma and brain levels by LC-MS/MS;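 further: ABH mice, four per group, dosed intraperitoneally, plasma and brain taken at set times after euthanasia, drug levels quantified by LC-MS/MS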
Description: as §1
Pharmacokinetic analysis.
(Cyprotex UK) using LCMSMS.

[15] = tested on: CRFK and CRFK-TRIMCypA cells; assay: MTT viability of CRFK and CRFK-TRIMCypA cells; type: cell-based, Feline; settings: 48 hours, up to 20 μM
Description: Assay for cellular CypA selectivity
bromide (MTT) assay (Sigma) was performed.
100 μL solubilisation solution (10 % SDS

[16] = tested on: mitochondrial permeability transition pore (mPTP); assay: Calcium retention capacity (CRC) assay in isolated liver mitochondria; type: biochemical, rat

Chain of hERG (Q12809 whole entry): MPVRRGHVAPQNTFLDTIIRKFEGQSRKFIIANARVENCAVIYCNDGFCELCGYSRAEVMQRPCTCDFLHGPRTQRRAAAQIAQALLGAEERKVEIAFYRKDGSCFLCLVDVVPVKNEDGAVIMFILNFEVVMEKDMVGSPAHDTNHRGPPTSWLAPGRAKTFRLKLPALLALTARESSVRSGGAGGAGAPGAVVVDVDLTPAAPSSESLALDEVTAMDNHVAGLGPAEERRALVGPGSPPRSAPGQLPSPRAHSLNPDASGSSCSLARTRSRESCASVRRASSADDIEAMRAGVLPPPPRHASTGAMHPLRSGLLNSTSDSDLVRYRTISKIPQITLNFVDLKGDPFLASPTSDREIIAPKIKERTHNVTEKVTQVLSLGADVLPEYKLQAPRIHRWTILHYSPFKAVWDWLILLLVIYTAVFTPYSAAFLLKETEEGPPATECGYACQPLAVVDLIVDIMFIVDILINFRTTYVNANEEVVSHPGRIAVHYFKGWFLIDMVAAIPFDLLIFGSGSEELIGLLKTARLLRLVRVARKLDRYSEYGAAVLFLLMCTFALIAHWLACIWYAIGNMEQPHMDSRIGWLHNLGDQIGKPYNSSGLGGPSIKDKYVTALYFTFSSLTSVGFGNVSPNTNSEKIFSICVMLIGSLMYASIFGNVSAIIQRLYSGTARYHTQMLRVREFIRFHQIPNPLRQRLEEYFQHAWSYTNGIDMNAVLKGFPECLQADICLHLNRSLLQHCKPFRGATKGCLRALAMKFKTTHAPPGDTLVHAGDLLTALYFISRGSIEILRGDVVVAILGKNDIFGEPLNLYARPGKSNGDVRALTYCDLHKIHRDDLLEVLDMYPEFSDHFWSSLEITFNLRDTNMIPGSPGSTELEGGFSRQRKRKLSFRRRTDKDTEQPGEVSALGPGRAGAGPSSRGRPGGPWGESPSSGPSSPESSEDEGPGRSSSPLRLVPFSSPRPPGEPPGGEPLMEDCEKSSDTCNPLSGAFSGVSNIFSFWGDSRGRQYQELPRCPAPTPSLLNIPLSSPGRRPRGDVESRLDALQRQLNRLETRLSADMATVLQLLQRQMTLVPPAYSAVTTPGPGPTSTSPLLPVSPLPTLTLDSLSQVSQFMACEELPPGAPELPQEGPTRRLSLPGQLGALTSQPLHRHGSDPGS
Chain of Cyclophilin A (CypA) (P62937 whole entry): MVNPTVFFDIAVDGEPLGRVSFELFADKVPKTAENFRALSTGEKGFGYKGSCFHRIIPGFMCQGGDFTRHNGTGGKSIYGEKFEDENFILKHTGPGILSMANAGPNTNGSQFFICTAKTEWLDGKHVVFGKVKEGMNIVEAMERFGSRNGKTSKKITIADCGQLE
T1 sequence (P62937 2-165, one chain of several): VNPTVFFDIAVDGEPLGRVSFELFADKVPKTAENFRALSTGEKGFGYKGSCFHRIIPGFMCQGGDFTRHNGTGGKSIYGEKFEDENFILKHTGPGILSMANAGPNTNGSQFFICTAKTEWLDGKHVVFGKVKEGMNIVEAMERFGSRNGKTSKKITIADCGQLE
Chain of CypD (P30405 30-207): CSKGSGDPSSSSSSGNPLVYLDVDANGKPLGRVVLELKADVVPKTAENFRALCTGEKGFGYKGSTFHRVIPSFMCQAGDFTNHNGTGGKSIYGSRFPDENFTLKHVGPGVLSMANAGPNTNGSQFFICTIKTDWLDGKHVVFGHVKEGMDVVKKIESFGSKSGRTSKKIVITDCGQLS

COc1ccc2cc3[n+](cc2c1OC)CCc1cc2c(cc1-3)OCO2 [Berberine, berberine]
Caco-2 cell line permeability AP-BL ([1]; AP-BL): 2.59 ×10⁻⁶ cm/s
Caco-2 cell line permeability BL-AP ([1]; BL-AP): 25.16 ×10⁻⁶ cm/s
PAMPA permeability [2]: 1 to 1.2 ×10⁻⁶ cm/s

CC[C@@H]1NC(=O)[C@H]([C@H](O)[C@H](C)C/C=C/CCC[n+]2ccc(N3CCOCC3)c3ccc(C(F)(F)F)cc32)N(C)C(=O)[C@H](C(C)C)N(C)C(=O)[C@H](CC(C)C)N(C)C(=O)[C@H](CC(C)C)N(C)C(=O)[C@@H](C)NC(=O)[C@H](C)NC(=O)[C@H](CC(C)C)N(C)C(=O)[C@H](C(C)C)NC(=O)[C@H](CC(C)C)N(C)C(=O)CN(C)C1=O [JP1-138]
AUC [3]: 198 µg·h/mL
AUC(0-inf) [3]: 226 µg·h/mL
AUC(0-t) [3]: 216 µg·h/mL
half-life [3]: 5.81 h
inhibition at 25 µM ([4]; 25 μM): 37.7%
Brain AUC as % of the plasma AUC [5]: about 2%
Cl_obs ([5]; 10 mg/kg): 4.43 × 10^−05 (mg/kg)/(ng/ml).hour
fraction unbound [6]: 0.00084
hepatocyte CLint [7]: 7.62 µL/min/1e6 cells
Ki [8]: 42 nM
Ki [9]: 64 ± 16 nM
hepatocyte CLint [10]: 9.61 µL/min/1e6 cells
level at time molar at 24 h [11]: 391 nM
level at 24 h [11]: 592 ng/mL

CC[C@@H]1NC(=O)[C@H]([C@H](O)[C@H](C)C/C=C/CCC[n+]2ccc(N3CCOCC3)c3ccccc32)N(C)C(=O)[C@H](C(C)C)N(C)C(=O)[C@H](CC(C)C)N(C)C(=O)[C@H](CC(C)C)N(C)C(=O)[C@@H](C)NC(=O)[C@H](C)NC(=O)[C@H](CC(C)C)N(C)C(=O)[C@H](C(C)C)NC(=O)[C@H](CC(C)C)N(C)C(=O)CN(C)C1=O [JP1-141]
AUC(0-inf) [3]: 105 µg·h/mL
AUC(0-t) [3]: 103 µg·h/mL
half-life [3]: 4.04 h
hERG (% inhibition at 25 μM) ([4]; 25 μM): 63.9%
inhibition at 25 µM ([4]; 25 μM): 65%
Toxicity in the pharmacokinetic experiment ([5]; 10 mg/kg): some toxicity
Cl_obs ([5]; 10 mg/kg): 9.57 × 10^−05 (mg/kg)/(ng/ml).hour
fraction unbound [6]: 0.01
hepatocyte CLint [7]: 3.62 µL/min/1e6 cells
Ki [8]: 29 nM
hepatocyte CLint [10]: 3.59 µL/min/1e6 cells
level at time molar at 24 h [11]: 642 nM
level at 24 h [11]: 927 ng/mL

CC[C@@H]1NC(=O)[C@H]([C@H](O)[C@H](C)C/C=C/CCC[n+]2ccc(N3CCCCC3)c3ccc(C(F)(F)F)cc32)N(C)C(=O)[C@H](C(C)C)N(C)C(=O)[C@H](CC(C)C)N(C)C(=O)[C@H](CC(C)C)N(C)C(=O)[C@@H](C)NC(=O)[C@H](C)NC(=O)[C@H](CC(C)C)N(C)C(=O)[C@H](C(C)C)NC(=O)[C@H](CC(C)C)N(C)C(=O)CN(C)C1=O [JP1-164]
AUC(0-inf) [3]: 141 µg·h/mL
AUC(0-t) [3]: 134 µg·h/mL
half-life [3]: 5.68 h
inhibition at 25 µM ([4]; 25 μM): 14.2%
Cl_obs ([5]; 10 mg/kg): 7.09 × 10^−05 (mg/kg)/(ng/ml).hour
fraction unbound [6]: 0.01
hepatocyte CLint [7]: 22.4 µL/min/1e6 cells
fraction unbound [12]: 0.69
hepatocyte CLint [10]: 5.89 µL/min/1e6 cells
level at time molar at 24 h [11]: 380 nM
level at 24 h [11]: 574 ng/mL

CC[C@@H]1NC(=O)[C@H]([C@H](O)[C@H](C)C/C=C/CCC[n+]2ccc(N(C)C)c3ccc(C(F)(F)F)cc32)N(C)C(=O)[C@H](C(C)C)N(C)C(=O)[C@H](CC(C)C)N(C)C(=O)[C@H](CC(C)C)N(C)C(=O)[C@@H](C)NC(=O)[C@H](C)NC(=O)[C@H](CC(C)C)N(C)C(=O)[C@H](C(C)C)NC(=O)[C@H](CC(C)C)N(C)C(=O)CN(C)C1=O [JW76]
Rescue of HIV-1 infectivity of restricting (TRIM-CypA) cells [13]: rescued infectivity poorly and only at 20 μM
level at 1 h ([14]; ABH, mouse, brain, ip, Brain ng/mL, mice, 1 h): 668 ng/mL
level at 4 h ([14]; ABH, mouse, brain, ip, Brain ng/mL, mice, 4 h): 545 ng/mL
level at 1 h ([14]; ABH, mouse, plasma, ip, Plasma (ng/mL), mice, 1 h): 50800 ng/mL
Detectability in the brain at 48 hours ([14]; longer-term pharmacokinetic study, 48 hours): not detectable
Brain ([14]; mice, 1 h): 668 ng/mL
AUC ([14]; mouse, in vivo): 67 µg·h/mL
Toxicity to non-restricting and restricting cells (MTT) [15]: not toxic at any concentration tested
hERG activity [4]: little hERG activity
inhibition at 25 µM ([4]; 25 μM): 16.3%
hepatocyte CLint [7]: 5.62 µL/min/1e6 cells
fraction unbound [12]: 0.0039
hepatocyte CLint [10]: 6.81 µL/min/1e6 cells
CRC inhibition % ([16]; Table S4 / Fig. S2, rat liver mitochondria, 500 nM, (Treated-NonTreated)/NonTreated)*100): 54.7%
CRC % inhibition at 10 nM ([16]; Table S7, 10 nM): 32.9%
